Source: ChEMBL document CHEMBL1131627, “Noncalcemic, antiproliferative, transcriptionally active, 24-fluorinated hybrid analogues of the hormone 1alpha, 25-dihydroxyvitamin D3. Synthesis and preliminary biological evaluation” (J Med Chem, 1998)

Target: T1, Vitamin D3 receptor (Rattus norvegicus) (UniProt P13053)
T1 sequence (whole entry): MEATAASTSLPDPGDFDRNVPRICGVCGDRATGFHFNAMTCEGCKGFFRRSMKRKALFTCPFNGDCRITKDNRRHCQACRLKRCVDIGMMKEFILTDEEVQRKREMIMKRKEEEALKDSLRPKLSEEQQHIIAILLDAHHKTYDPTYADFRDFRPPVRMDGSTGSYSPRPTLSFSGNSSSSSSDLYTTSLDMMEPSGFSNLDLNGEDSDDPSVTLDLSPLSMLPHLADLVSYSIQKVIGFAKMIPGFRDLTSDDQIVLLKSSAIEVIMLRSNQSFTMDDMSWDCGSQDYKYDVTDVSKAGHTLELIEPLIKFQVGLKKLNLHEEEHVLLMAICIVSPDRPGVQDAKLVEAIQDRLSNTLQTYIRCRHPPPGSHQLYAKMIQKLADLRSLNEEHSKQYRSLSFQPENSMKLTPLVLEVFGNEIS
Assay: Vitamin D receptor mediated transcriptional activity in rat osteosarcoma ROS 17/2.8 cells

Compound: C=C1/C(=C\C=C2/CCC[C@]3(C)C([C@H](C)CCC(F)(F)C(C)(C)O)=CC[C@@H]23)C[C@H](O)C[C@H]1CO
- ED50: 0.2 nM

Compound: C=C1/C(=C\C=C2/CCC[C@]3(C)C([C@H](C)CCC(F)(F)C(O)(CC)CC)=CC[C@@H]23)C[C@H](O)C[C@H]1CO
- ED50: 0.05 nM

Compound: C=C1/C(=C\C=C2/CCC[C@]3(C)[C@@H]([C@H](C)CCCC(C)(C)O)CC[C@@H]23)C[C@@H](O)C[C@@H]1O
- ED50: 0.3 nM
